What was measured:
live HeLa cells [1] = assay: SRS imaging of live HeLa cells incubated with unmethylated probes before and after 405 nm illumination; assay type: cell-based; settings: 20 µM, 30 minutes of labeling; 2226 cm^-1 channel after 405 nm
Experimental: FIG. 7 provides exemplary results from SRS imaging of live HeLa cells incubated with 1-cyclo (1, 20 µM, 30 minutes of labeling, top) and Cyclo-Mito (7, 20 µM, 30 minutes of labeling, bottom) at the CH3 (2940 cm^-1) channel, and the expected uncaged alkyne channel (2226 cm^-1) before and after 405 nm illumination. Scale bar: 10 µm.
An integrated laser (picoEMERALD, Applied Physics and Electronics, Inc.) was used as a light source for both pump and Stokes beams. It produces 2 ps pump (tunable from 770 nm - 990 nm, bandwidth 0.5 nm, spectral bandwidth ~ 7 cm-1 ) and Stokes (1031.2 nm, spectral bandwidth 10 cm-1 ) beams with 80 MHz repetition rate. Stokes beam is modulated at 20 MHz by an internal electro-optic modulator. […] Laser powers are monitored through image acquisition by an internal power meter and power fluctuation are controlled within 5% by the laser system. […] Fluorescence images were collected using the same Olympus FV3000 confocal microscope with CW laser excitation (405, 488, 561 and 640 nm, Coherent OBIS LX laser) and standard bandpass filter sets. The correlation coefficients (Pearson’s R value) between SRS images and fluorescence images were calculated using ‘Coloc 2’ tool of ImageJ.

[2] = Photoactivation (UV-uncaging) monitored by time-series spontaneous Raman spectra; assay type: physicochemical; settings: 365 nm illumination (15 mW/cm^2); increase of alkyne peak 2226 cm^-1
Experimental: The 365 nm UV light used to activate cyclopropenones comes from a UV handlamp (Analytik Jena UVP EL Series Lamp, UVLS-24, 4 Watt, 2 UV 254/365 nm, typically used for TLC monitoring in organic synthesis). The power of 365 nm UV of this handlamp was measured to be 15 mW/cm2 on samples.
Next, the photo-uncaging kinetics for both 1-cyclo (1) and 2-cyclo (3) were compared. […] With 365 nm lamp illumination, the characteristic peaks of cyclopropenones (~1860 cm^-1) continue to drop while the alkyne peaks (2226 cm^-1) gradually increase for both molecules (FIG. 1D). […] The progression of the UV-activation reactions could also be confirmed by the change in the corresponding absorption spectra (FIG. 6).

[3] = Spontaneous Raman / hyperspectral SRS spectroscopy of probes and uncaged alkynes; assay type: physicochemical
From the text: An integrated laser (picoEMERALD, Applied Physics and Electronics, Inc.) was used as a light source for both pump and Stokes beams. It produces 2 ps pump (tunable from 770 nm - 990 nm, bandwidth 0.5 nm, spectral bandwidth ~ 7 cm-1 ) and Stokes (1031.2 nm, spectral bandwidth 10 cm-1 ) beams with 80 MHz repetition rate. Stokes beam is modulated at 20 MHz by an internal electro-optic modulator. The spatially and temporally overlapped pump and Stokes beams are introduced into an inverted multiphoton laser scanning microscopy (FV3000, Olympus), and then focused onto the sample by a 25X water objective (XLPLN25XWMP, 1.05 N.A., Olympus). Transmitted pump and Stokes beams are collected by a high N.A. condenser lens (oil immersion, 1.4 N.A., Olympus) and pass through a bandpass filter (893/209 BrightLine, 25 mm, AVR Optics) to filter out Stokes beam. A large area (10×10 mm) Si photodiode (S3590-09, Hamamatsu) is used to measure the remaining pump beam intensity. 64 V DC voltage was used on the photodiode to increase saturation threshold and reduce response time. The output current is terminated by a 50 Ω terminator and pre-filtered by an 19.2-23.6-MHz band-pass filter (BBP-21.4+, Mini-Circuits) to reduce laser and scanning noise. The signal is then demodulated by a lock-in amplifier (SR844, Stanford Research Systems) at the modulation frequency. The in-phase X output is fed back to the Olympus IO interface box (FV30-ANALOG) of the microscope. Image acquisition speed is limited by 30 µs time constant set for the lock-in amplifier. Correspondingly, we use 80 µs pixel dwell time, which gives a speed of 8.5 s frame-1 for a 320-by-320-pixel field of view. Laser powers are monitored through image acquisition by an internal power meter and power fluctuation are controlled within 5% by the laser system. 16-bit grey scale images are acquired by Fluoview software. SRS spectra were acquired by fixing the Stokes beam at 1031.2 nm and scanning the pump beam through the designated wavelength range point by point. 10 mM EdU (H2O) sample was used as a standard to give RIE of different probes. Fluorescence images were collected using the same Olympus FV3000 confocal microscope with CW laser excitation (405, 488, 561 and 640 nm, Coherent OBIS LX laser) and standard bandpass filter sets. The correlation coefficients (Pearson’s R value) between SRS images and fluorescence images were calculated using ‘Coloc 2’ tool of ImageJ.
To perform spontaneous Raman spectroscopy, spontaneous Raman spectra were acquired using an upright confocal Raman spectrometer (Horiba Raman microscope; Xplora plus). A 532 nm YAG laser is used to illuminate the sample with a power of 12 mW on sample through a 100 x, N.A. 0.9 objective (MPLANN; Olympus) with 100 µm slit and 500 µm hole. Spectro/Raman shift center was set to be 2000.04 cm-1 . With a 1200 grating, Raman shift ranges from 690.81 cm-1 to 3141.49 cm-1 was acquired to cover whole biological relevant Raman peaks. The acquired spectra were processed by the LabSpec 6 software for baseline correction.
Cyclopropenone caging has been previously adopted for photoactivation and subsequent biorthogonal labeling of fluorophores in fluorescence microscopy. […] Herein the alkyne Raman signal generation from photo-DIBO light-activation was first measured (FIG. 1A). […] Compared to 5-ethynyl-2′-deoxyuridine (EdU), the well-adopted benchmark for Raman intensity quantification, the relative Raman intensity to EdU (RIE) of the strained alkyne DIBO is only 1.8 (Table 1). […] Given this, it is reasoned that diphenylcyclopropenone (i.e. cyclopropenone-caged 1-yne, 1-cyclo, 1, FIG. 1A) should be a better photoactivatable Raman scaffold with higher Raman sensitivity after uncaging. Indeed, UV-uncaging of 1-cyclo (1), which started from a similarly weak Raman peak at 1860 cm^-1 from photo-DIBO, produced an intense sharp peak for 1-yne (2) at 2226 cm^-1 (FIG. 1B, dashed black vs solid blue spectra) with an improved RIE values to about 4

[4] = reported value; cited from earlier work
[5] = UV-Vis absorption spectra; assay type: physicochemical; settings: 20 uM in DMSO
Experimental: UV-Vis absorption spectra were recorded on a Varian Cary 50 UV-Vis Spectrophotometer (Agilent).

live HeLa cells [6] = assay: Time lapse (pulse-chase) imaging of retained signal after photoactivation; assay type: cell-based; settings: after 2 hours of chasing, 0 h = 100%
Experimental: FIG. 20 illustrates labeling signal and specificity evaluation during 2 hours of time lapse imaging in photoactivated Me-Mito-^13C (16) labeled live HeLa cells. Panel (a) is a plot showing quantification of retained signals after 1 hour and 2 hours imaging. The values of signals at 0 h were used as 100% signal reference. n = 6 independent experiments. Data shown as mean ± SEM. Panel (b) includes a series of representative time lapse imaging. The magnified images of the bottom cell (indicated by the dashed white box) are shown. Scale bar: 10 µm. The high mitochondria-labeling specificity of the mitochondria probe was confirmed for relatively long-term pulse-chase tracking applications. More than 85% of activated Me-Mito-^13C (16) signals retained in live HeLa cells after 2 hours of chasing ([…]) with well-maintained mitochondria labeling pattern (FIG. 20, panel b). In live HeLa cells labeled with Me-Mito-^13C (16), 405 nm laser was first used to pulse-activate the selected region of a single cell for 20 seconds (FIG. 5A, CH3, the white dashed box indicates the activation area). Immediately after photoactivation, SRS imaging at 2125 cm^-1 well resolved the distribution of mitochondria only from this activated subcellular region (FIG. 5A, Mito0 min, Pulse), implying high spatial selectivity. […]

| RIE (relative Raman intensity to EdU) ([3]; 10 mM EdU (H2O) as standard) | Raman Peak ([3]; cell silent region, model systems) [cm⁻¹] | Abs [5] [nm] | εabs [5] [M⁻¹ cm⁻¹] | alkyne Raman peak / SRS channel after uncaging ([3]; organelle probes after UV / 405 nm uncaging) [cm⁻¹] | SMILES | uncaging signals in labeled live cells (live HeLa cells [1]) | uncaging kinetics k [2] [s⁻¹] | quantum yield [4] | activated signals retained (live HeLa cells [6]) |
| --- | --- | --- | --- | --- | --- | --- | --- | --- | --- |
| 0.37 | 1860 | 302 | 28600 | – | O=c1c(-c2ccccc2)c1-c1ccccc1 [1-cyclo (1), diphenylcyclopropenone] | did not produce any observable uncaging signals | 0.0044 | 0.78 | – |
| – | – | – | – | 2125 | Cc1cc(C)c(-[13c]2c(=O)[13c]2-c2c(C)cc(OCCC[P+](c3ccccc3)(c3ccccc3)c3ccccc3)cc2C)c(C)c1.[Br-] [Me-Mito-^13C (16)] | – | – | – | More than 85% |
